The values below come from publication PMC5407767, “Characterization and expression analysis of Galnts in developing Strongylocentrotus purpuratus embryos” (PLoS ONE, 2017).

The assay concerns the target SpGalNAc-T2 (Strongylocentrotus purpuratus, UniProt A0A7M7T5A5). Description: GalNAc transfer to peptide acceptors, radioactivity (dpm/3hr). The format is biochemical. To be noted: acceptor peptides EA2, MUC5AC, MUC5AC-3, MUC5AC-13, MUC5AC-3/-13, SpDelta, SpNotch, 37°C, donor not given.

Sequence of SpGalNAc-T2 (A0A7M7T5A5 37-564): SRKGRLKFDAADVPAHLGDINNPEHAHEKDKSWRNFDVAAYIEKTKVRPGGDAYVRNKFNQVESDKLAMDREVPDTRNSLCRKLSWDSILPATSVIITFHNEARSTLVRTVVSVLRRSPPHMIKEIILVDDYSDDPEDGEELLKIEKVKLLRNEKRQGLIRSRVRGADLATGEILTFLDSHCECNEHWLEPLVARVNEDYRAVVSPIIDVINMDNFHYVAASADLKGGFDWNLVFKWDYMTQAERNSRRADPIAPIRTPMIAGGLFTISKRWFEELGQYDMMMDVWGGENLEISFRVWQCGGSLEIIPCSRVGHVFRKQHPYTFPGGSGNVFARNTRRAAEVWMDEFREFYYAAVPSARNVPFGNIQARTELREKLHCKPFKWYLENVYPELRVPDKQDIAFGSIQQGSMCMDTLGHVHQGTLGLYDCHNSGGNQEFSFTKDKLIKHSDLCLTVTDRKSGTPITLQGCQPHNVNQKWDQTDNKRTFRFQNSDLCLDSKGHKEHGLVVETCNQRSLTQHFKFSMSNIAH

For the molecule `CC(=O)N[C@H]1[C@@H](OP(=O)(O)OP(=O)(O)OC[C@H]2O[C@@H](n3ccc(=O)[nH]c3=O)[C@H](O)[C@@H]2O)O[C@H](CO)[C@H](O)[C@@H]1O` [UDP-GalNAc], the “GalNAc transfer to peptide acceptors, radioactivity (dpm/3hr)” value is “GalNAc-T activity was observed for SpGalNAc-T1, SpGalNAc-T2, SpGalNAc-T7, SpGalNAc-T7-1, and SpGalNAc-T7-2”.
